Experimental data from paper PMC10999543, “Identification of kinase modulators as host-directed therapeutics against intracellular methicillin-resistant Staphylococcus aureus” (Frontiers in Cellular and Infection Microbiology, 2024).
Like-named read-outs stand apart in the source and are kept apart here.

Experiments:
intracellular MRSA = assay type: cell-based, Staphylococcus aureus; settings: for %GFP+ rep 1 / z-scoreMRSA+ rep 1: replicate 1; for %GFP+ rep 2 / z-scoreMRSA+ rep 2: replicate 2; for %GFP+ rep 3 / z-scoreMRSA+ rep 3: replicate 3; for z-scoreMRSA+ mean: mean of 3 replicates; as to %GFP+ rep 1: test concentration or dose not given here; as to %GFP+ rep 2: test concentration or dose not given here; as to %GFP+ rep 3: test concentration or dose not given here; as to effect: test concentration or dose not given here; as to z-scoreMRSA+ mean: test concentration or dose not given here; as to z-scoreMRSA+ rep 1: test concentration or dose not given here; as to z-scoreMRSA+ rep 2: test concentration or dose not given here; as to z-scoreMRSA+ rep 3: test concentration or dose not given here
In short: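 Values are z-scores: GFP-positive HeLa percentage and event count per well against plate statistics, minus the mean DMSO z-score. Wells deviating two-fold from controls were left out of plate means. Infection was at a mean MOI of 6.8, with an overnight compound exposure.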

HeLa cells = assay: Compound screen by flow cytometry: HeLa cell count as surrogate readout of cell viability (z-scoreHeLa); assay type: cell-based, human; settings: for cell count rep 1 / z-scoreHeLa rep 1: replicate 1; for cell count rep 2 / z-scoreHeLa rep 2: replicate 2; for cell count rep 3 / z-scoreHeLa rep 3: replicate 3; for z-scoreHeLa mean: mean of 3 replicates; as to all read-outs here: test concentration or dose not given here
In short: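 The viability surrogate was the count of fixed HeLa cells by flow cytometry, converted to z-scores against DMSO controls with values deviating two-fold excluded. Before counting, cells had been infected with MRSA for 1 h and cleared of extracellular bacteria with gentamicin. They were then exposed overnight to kinase inhibitors in triplicate.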

[1] = PKIS compound screen raw data, MRSA-infected HeLa cells
[2] = PKIS compound screen, MRSA-infected HeLa cells
[3] = PKIS compound screen, Yes/No call (effect without cell death)
[4] = PKIS compound screen, Yes/No call on z-scoreMRSA+
[5] = PKIS compound screen raw data, HeLa cell count
[6] = PKIS compound screen, HeLa cell count
[7] = PKIS compound screen, Yes/No call on z-scoreHeLa
[8] = Yes/No: effect without cell death
[9] = compound screen, MRSA-infected HeLa cells
[10] = compound screen, HeLa cell count
[11] = PKIS compound screen, Yes/No call
[12] = PKIS compounds raw data, MRSA-infected HeLa cells
[13] = PKIS compounds raw data, HeLa cell count

SMILES	%GFP+ rep 1 (intracellular MRSA; [1]) [%]	%GFP+ rep 2 (intracellular MRSA; [1]) [%]	%GFP+ rep 3 (intracellular MRSA; [1]) [%]	z-scoreMRSA+ mean (intracellular MRSA; [2])	z-scoreMRSA+ rep 1 (intracellular MRSA; [2])	z-scoreMRSA+ rep 2 (intracellular MRSA; [2])	z-scoreMRSA+ rep 3 (intracellular MRSA; [2])	hit (intracellular MRSA; [3])	effect (intracellular MRSA; [4])	cell count rep 1 (HeLa cells; [5])	cell count rep 2 (HeLa cells; [5])	cell count rep 3 (HeLa cells; [5])	z-scoreHeLa mean (HeLa cells; [6])	z-scoreHeLa rep 1 (HeLa cells; [6])	z-scoreHeLa rep 2 (HeLa cells; [6])	z-scoreHeLa rep 3 (HeLa cells; [6])	cell death (HeLa cells; [7])	effect (intracellular MRSA; Yes/No call from z-scoreMRSA+)	hit (intracellular MRSA; [8])	z-scoreMRSA+ mean (intracellular MRSA; [9])	other results
OCCCNc1nccc(-c2c(-c3ccc(F)cc3)nn3cc(C(F)(F)F)ccc23)n1 [GW569293E]	17.0	16.9	19.3	-0.30	-0.27	-0.49	-0.15	No	No	13158	40183	38241	-0.14	-1.06	1.01	-0.36	No	–	–	–	–
Cc1ccc(Nc2ccnc(Nc3cccc(C(N)=O)c3)n2)cc1O [GW575808A]	13.4	14.8	16.1	-1.22	-1.41	-1.12	-1.12	No	No	19398	38059	43165	0.31	-0.11	0.61	0.42	No	–	–	–	–
COc1cc(Nc2ccnc3ccc(C(F)(F)F)cc23)cc(OC)c1OC [GW577382X]	19.6	17.8	18.8	–	–	–	–	–	–	2914	2336	2608	–	–	–	–	–	No	No	-1.17	z-scoreMRSA+ rep 1 (intracellular MRSA; [9]): -1.32; z-scoreMRSA+ rep 2 (intracellular MRSA; [9]): -1.17; z-scoreMRSA+ rep 3 (intracellular MRSA; [9]): -1.02; cell death (HeLa cells; Yes/No call from z-scoreHeLa): No; z-scoreHeLa mean (HeLa cells; [10]): -1.40; z-scoreHeLa rep 1 (HeLa cells; [10]): -1.04; z-scoreHeLa rep 2 (HeLa cells; [10]): -1.51; z-scoreHeLa rep 3 (HeLa cells; [10]): -1.66
COc1cc(/C=N/Nc2ncnc3[nH]ncc23)ccc1O [GW578748X]	–	–	–	–	–	–	–	No	–	–	–	–	–	–	–	–	–	–	–	–	effect (intracellular MRSA; [11]): No; z-scoreMRSA+ mean (intracellular MRSA; PKIS compound screen): -1.18; z-scoreMRSA+ rep 1 (intracellular MRSA; PKIS compound screen): -0.92; z-scoreMRSA+ rep 2 (intracellular MRSA; PKIS compound screen): -1.14; z-scoreMRSA+ rep 3 (intracellular MRSA; PKIS compound screen): -1.48; %GFP+ rep 1 (intracellular MRSA; [12]): 10.3%; %GFP+ rep 2 (intracellular MRSA; [12]): 10.1%; %GFP+ rep 3 (intracellular MRSA; [12]): 10.9%; cell death (HeLa cells; [11]): No; z-scoreHeLa mean (HeLa cells; PKIS compound screen): 0.25; z-scoreHeLa rep 1 (HeLa cells; PKIS compound screen): -0.52; z-scoreHeLa rep 2 (HeLa cells; PKIS compound screen): 1.00; z-scoreHeLa rep 3 (HeLa cells; PKIS compound screen): 0.26; cell count rep 1 (HeLa cells; [13]): 4206; cell count rep 2 (HeLa cells; [13]): 5592; cell count rep 3 (HeLa cells; [13]): 7495
CS(=O)(=O)CCNCc1nc(-c2ccc3ncnc(Nc4ccc(OCc5ccccc5)c(Cl)c4)c3c2)cs1 [GW582764A]	15.6	19.2	19.4	–	–	–	–	–	–	3605	3519	4776	–	–	–	–	–	No	No	-1.31	z-scoreMRSA+ rep 1 (intracellular MRSA; [9]): -2.25; z-scoreMRSA+ rep 2 (intracellular MRSA; [9]): -0.83; z-scoreMRSA+ rep 3 (intracellular MRSA; [9]): -0.84; cell death (HeLa cells; Yes/No call from z-scoreHeLa): No; z-scoreHeLa mean (HeLa cells; [10]): -0.48; z-scoreHeLa rep 1 (HeLa cells; [10]): -0.54; z-scoreHeLa rep 2 (HeLa cells; [10]): -0.60; z-scoreHeLa rep 3 (HeLa cells; [10]): -0.29
CS(=O)(=O)CCNCc1nc(-c2ccc3ncnc(Nc4ccc(OCc5cccc(F)c5)c(Cl)c4)c3c2)cs1 [GW583340C]	–	–	–	–	–	–	–	–	–	–	–	–	–	–	–	–	–	No	No	-1.71	%GFP+ rep 1 (intracellular MRSA; [12]): 17.5%; %GFP+ rep 2 (intracellular MRSA; [12]): 15.0%; %GFP+ rep 3 (intracellular MRSA; [12]): 17.3%; z-scoreMRSA+ rep 1 (intracellular MRSA; [9]): -1.81; z-scoreMRSA+ rep 2 (intracellular MRSA; [9]): -1.85; z-scoreMRSA+ rep 3 (intracellular MRSA; [9]): -1.47; cell count rep 1 (HeLa cells; [13]): 5969; cell count rep 2 (HeLa cells; [13]): 5507; cell count rep 3 (HeLa cells; [13]): 7162; cell death (HeLa cells; Yes/No call from z-scoreHeLa): No; z-scoreHeLa mean (HeLa cells; [10]): 1.10; z-scoreHeLa rep 1 (HeLa cells; [10]): 1.17; z-scoreHeLa rep 2 (HeLa cells; [10]): 0.93; z-scoreHeLa rep 3 (HeLa cells; [10]): 1.22
CN(C)CCCNc1nccc(-c2c(-c3ccc(F)cc3)nn3cc(C(F)(F)F)ccc23)n1 [GW618013A]	10.7	13.4	14.0	-1.86	-2.27	-1.54	-1.76	No	No	23652	24495	45248	-0.21	0.54	-1.92	0.75	No	–	–	–	–
COc1cc(Nc2ncc(-c3ccccc3)o2)cc(OC)c1OC [GW627512B]	–	–	–	–	–	–	–	–	–	–	–	–	–	–	–	–	–	No	No	-0.71	%GFP+ rep 1 (intracellular MRSA; [12]): 11.0%; %GFP+ rep 2 (intracellular MRSA; [12]): 12.1%; %GFP+ rep 3 (intracellular MRSA; [12]): 12.6%; z-scoreMRSA+ rep 1 (intracellular MRSA; [9]): -0.70; z-scoreMRSA+ rep 2 (intracellular MRSA; [9]): -0.47; z-scoreMRSA+ rep 3 (intracellular MRSA; [9]): -0.97; cell count rep 1 (HeLa cells; [13]): 2360; cell count rep 2 (HeLa cells; [13]): 2993; cell count rep 3 (HeLa cells; [13]): 4653; cell death (HeLa cells; Yes/No call from z-scoreHeLa): No; z-scoreHeLa mean (HeLa cells; [10]): -1.42; z-scoreHeLa rep 1 (HeLa cells; [10]): -2.18; z-scoreHeLa rep 2 (HeLa cells; [10]): -0.96; z-scoreHeLa rep 3 (HeLa cells; [10]): -1.10
COc1ccc(COc2ccc(Cc3cnc(N)nc3N)cc2OC)cc1 [GW632580X]	19.0	19.0	21.7	0.36	0.36	0.14	0.58	No	No	16746	34970	43497	-0.0017	-0.51	0.0341	0.47	No	–	–	–	–
